The values that follow come from US6486209B2, “Use for 1,3-propanediol derivatives” (Novartis AG, priority 1996, dated 2002).

Assay [1] relates to carotid artery allograft (DA donors, Lewis recipients). Kind of assay: Prevention of graft vessel disease: carotid artery transplantation. Type of assay: in vivo, rat. The note with it: 0.1 to 10 mg/kg alone or in combination with Cyclosporin A, 8 weeks, osmotic minipump s.c. or oral. How it is done: A. Prevention of Graft Vessel Disease
Inbred rat strains DA (RT1^a, donors) and Lewis (RT1^1, recipients of allografts), weighing between 200 and 350 grams are used. The animals are allowed unrestricted access to food and water before and after the operation.
Carotid artery transplantation:
The rats are anaesthetised with isofluorane (Abbott), (4-5% for induction, 1.5-2% for maintenance) and 300 μg atropin sulphate is injected subcutaneously following the induction. The left carotid artery is dissected free. The artery is clamped proximally and distally and a segment of about 7-10 mm is removed. The gap is bridged by an allograft which had also been subjected to 45 min cold ischemia. Ethilon 10/o sutures are used. Finally the skin is closed with 4/0 sutures. If needed, an Alzet osmotic minipump (Alza Corp. Palo Alto, Calif.) is then implanted subcutaneously over the back (alternatively the animals are treated orally).
The rats are subject to one of the following treatments: A compound of formula I alone at the doses of 0.1 to 10 mg/kg, or in combination with Cyclosporin A at the dose of 0.03, 0.3, or 1 mg.kg^−1·day^−1 is administered for 8 weeks either by using Alzet osmotic minipumps implanted subcutaneously or alternatively by oral administration. […]

In assay [2] the test system is Syrian hamster heart xenograft in rat. The experiment in a line: In vivo heart xenotransplantation (hamster-to-rat). The note with it: 5-30 mg/kg/day orally. The text has this:
B. In vivo heart xenotransplantation (hamster-to-rat)
The hamster-into-rat xenograft combination is a so-called difficult concordant combination. […] This is visualized in histology by destruction of blood vessels, exsudation and extravasation of erythrocytes, and influx by polymorphonuclear granulocytes; often there are signs of hemorrhage and thrombosis. Once this rejection has been overcome by effective inhibition of antibody synthesis or complement inactivation, a cellular rejection can emerge later on. This is visualized in histology by influx of mononuclear cells, including lymphocytes, lymphoblastoid cells, and macrophages, and destruction of the myocyte parenchyma. The inhibition of cellular rejection requires more immuno-suppression than that of allografts. Congenitally athymic (rnu/rnu) rats lack a competent (thymus-dependent) cellular immune system and generally are unable to reject allografts. Such animals do reject a hamster xenograft within 3-4 days in a similar fashion as euthymic rats, indicative that (at least part of) anti-hamster antibody synthesis in rats occurs following a thymus-independent B-cell response. […]
The graft is monitored daily by palpation of the abdomen. […] Animals are subjected to autopsy; apart from the graft, weight and histology is assessed for thymus, spleen, liver, seminal vesicles and testes. […]

Turning to `CCCCCCCCc1ccc(CCC(N)(CO)CO)cc1` [Compound A, 2-amino-2-[2-(4-octylphenyl)ethyl]-1,3-propanediol], the graft infiltration entry in assay [1] is “significantly inhibit”. Besides, the neointima formation result in assay [1] is on record as “significantly inhibit”. Also, the graft survival result in assay [2] (athymic recipients) and in assay [2] (euthymic recipients) was “prolonged graft survival” each time.
